Key:
Assay in all cases: Kinase inhibitory activity profiling of RI-962@10 µM (406 kinases, Eurofins)
Assay type in all cases: biochemical
[1] = biological target: panel of human kinases (kinase named in endpoint) (Homo sapiens, UniProt Q9Y3S1); conditions: 10 µM; read-out: Activity (%), WNK2(h)
Description: (§1) In vitro kinase activity assays were conducted through the Kinase Profiling Services provided by Eurofins (Eurofins, France). The protocol for the RIPK1 assay is briefly described as follows (Protocols for other kinases are very similar and can be found in http://www.eurofins.com/pharmadiscovery). RIPK1 kinase was incubated with the test compound in assay buffer containing 8 mM MOPS (pH 7.0), 0.2 mM EDTA, 250 μM […], 10 mM magnesium acetate, and 10 μM [γ-33P]-ATP for 15 min at room temperature. The reaction was initiated by the addition of the Mg/ATP mixture. After incubation for 40 min at room temperature, and the reaction was stopped by the addition of 3% phosphoric acid. A 10 μL portion of the reaction mixture was then spotted onto a P30 filter mat and washed four times for 4 min in 0.425% phosphoric acid and once in methanol prior to drying and scintillation counting.

[2] = biological target: panel of human kinases (kinase named in endpoint) (Homo sapiens, UniProt P42336, E542K); conditions: 10 µM; read-out: Activity (%), PI3(p110a(E542K)/p85a)
Description: as §1

[3] = biological target: panel of human kinases (kinase named in endpoint) (Homo sapiens, UniProt Q05655); conditions: 10 µM; read-out: Activity (%), PKCδ(h)
Description: as §1

[4] = biological target: panel of human kinases (kinase named in endpoint) (Homo sapiens, UniProt P31749); conditions: 10 µM; read-out: Activity (%), PKBα(h)
Description: as §1

[5] = biological target: panel of human kinases (kinase named in endpoint) (Homo sapiens, UniProt P08581, Y1230C); conditions: 10 µM; read-out: Activity (%), Met(Y1248C)(h)
Description: as §1

[6] = biological target: panel of human kinases (kinase named in endpoint) (Homo sapiens, UniProt Q13523); conditions: 10 µM; read-out: Activity (%), PRP4(h)
Description: as §1

[7] = biological target: panel of human kinases (kinase named in endpoint) (Homo sapiens, UniProt O94804); conditions: 10 µM; read-out: Activity (%), LOK(h)
Description: as §1

[8] = biological target: panel of human kinases (kinase named in endpoint) (Homo sapiens, UniProt O96017, R145W); conditions: 10 µM; read-out: Activity (%), CHK2(R145W)(h)
Description: as §1

[9] = biological target: panel of human kinases (kinase named in endpoint) (Homo sapiens, UniProt Q8N568); conditions: 10 µM; read-out: Activity (%), DCAMKL2(h)
Description: as §1

[10] = biological target: panel of human kinases (kinase named in endpoint) (Homo sapiens, UniProt O94806); conditions: 10 µM; read-out: Activity (%), PKD3(h)
Description: as §1

[11] = biological target: panel of human kinases (kinase named in endpoint) (Homo sapiens, UniProt Q00532); conditions: 10 µM; read-out: Activity (%), CDKL1(h)
Description: as §1

[12] = biological target: panel of human kinases (kinase named in endpoint) (Homo sapiens, UniProt Q9P289); conditions: 10 µM; read-out: Activity (%), MST4(h)
Description: as §1

[13] = biological target: panel of human kinases (kinase named in endpoint) (Homo sapiens, UniProt O75460); conditions: 10 µM; read-out: Activity (%), IRE1(h)
Description: as §1

[14] = biological target: panel of human kinases (kinase named in endpoint) (Homo sapiens, UniProt P04049); conditions: 10 µM; read-out: Activity (%), c-RAF(h)
Description: as §1

[15] = biological target: panel of human kinases (kinase named in endpoint) (Homo sapiens, UniProt O00418); conditions: 10 µM; read-out: Activity (%), eEF-2K(h)
Description: as §1

[16] = biological target: panel of human kinases (kinase named in endpoint) (Homo sapiens, UniProt P21709); conditions: 10 µM; read-out: Activity (%), EphA1(h)
Description: as §1

[17] = biological target: panel of human kinases (kinase named in endpoint) (Homo sapiens, UniProt Q12866); conditions: 10 µM; read-out: Activity (%), Mer(h)
Description: as §1

[18] = biological target: panel of human kinases (kinase named in endpoint) (Homo sapiens, UniProt P30291); conditions: 10 µM; read-out: Activity (%), Wee1(h)
Description: as §1

[19] = biological target: panel of human kinases (kinase named in endpoint) (Homo sapiens, UniProt P54762); conditions: 10 µM; read-out: Activity (%), EphB1(h)
Description: as §1

[20] = biological target: panel of human kinases (kinase named in endpoint) (Homo sapiens, UniProt Q14164); conditions: 10 µM; read-out: Activity (%), IKKε(h)
Description: as §1

[21] = biological target: panel of human kinases (kinase named in endpoint) (Homo sapiens, UniProt Q6PHR2); conditions: 10 µM; read-out: Activity (%), ULK3(h)
Description: as §1

[22] = biological target: panel of human kinases (kinase named in endpoint) (Homo sapiens, UniProt Q00526); conditions: 10 µM; read-out: Activity (%), CDK3/cyclinE(h)
Description: as §1

[23] = biological target: panel of human kinases (kinase named in endpoint) (Homo sapiens, UniProt P22607); conditions: 10 µM; read-out: Activity (%), FGFR3(h)
Description: as §1

[24] = biological target: panel of human kinases (kinase named in endpoint) (Homo sapiens, UniProt Q15119); conditions: 10 µM; read-out: Activity (%), PDHK2(h)
Description: as §1

[25] = biological target: panel of human kinases (kinase named in endpoint) (Homo sapiens, UniProt P07948); conditions: 10 µM; read-out: Activity (%), Lyn(h)
Description: as §1

Chain of panel of human kinases (kinase named in endpoint) (Homo sapiens, UniProt O96017, R145W) (O96017 whole entry R145W): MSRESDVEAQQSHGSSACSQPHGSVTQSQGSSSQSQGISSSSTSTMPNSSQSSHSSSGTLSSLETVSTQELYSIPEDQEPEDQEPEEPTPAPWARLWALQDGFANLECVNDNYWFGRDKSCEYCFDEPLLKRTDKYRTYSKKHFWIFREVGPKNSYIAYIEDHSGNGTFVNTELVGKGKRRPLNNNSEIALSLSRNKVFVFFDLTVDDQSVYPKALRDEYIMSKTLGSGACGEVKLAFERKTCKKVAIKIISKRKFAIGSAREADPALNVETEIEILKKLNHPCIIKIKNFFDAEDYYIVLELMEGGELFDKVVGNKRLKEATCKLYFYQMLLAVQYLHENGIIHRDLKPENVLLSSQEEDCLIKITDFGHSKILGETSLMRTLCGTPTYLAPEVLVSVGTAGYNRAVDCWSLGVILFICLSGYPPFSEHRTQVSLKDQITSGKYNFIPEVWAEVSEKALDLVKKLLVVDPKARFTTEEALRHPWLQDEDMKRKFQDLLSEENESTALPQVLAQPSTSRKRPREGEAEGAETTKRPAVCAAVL
Chain of panel of human kinases (kinase named in endpoint) (Homo sapiens, UniProt P54762) (P54762 18-984): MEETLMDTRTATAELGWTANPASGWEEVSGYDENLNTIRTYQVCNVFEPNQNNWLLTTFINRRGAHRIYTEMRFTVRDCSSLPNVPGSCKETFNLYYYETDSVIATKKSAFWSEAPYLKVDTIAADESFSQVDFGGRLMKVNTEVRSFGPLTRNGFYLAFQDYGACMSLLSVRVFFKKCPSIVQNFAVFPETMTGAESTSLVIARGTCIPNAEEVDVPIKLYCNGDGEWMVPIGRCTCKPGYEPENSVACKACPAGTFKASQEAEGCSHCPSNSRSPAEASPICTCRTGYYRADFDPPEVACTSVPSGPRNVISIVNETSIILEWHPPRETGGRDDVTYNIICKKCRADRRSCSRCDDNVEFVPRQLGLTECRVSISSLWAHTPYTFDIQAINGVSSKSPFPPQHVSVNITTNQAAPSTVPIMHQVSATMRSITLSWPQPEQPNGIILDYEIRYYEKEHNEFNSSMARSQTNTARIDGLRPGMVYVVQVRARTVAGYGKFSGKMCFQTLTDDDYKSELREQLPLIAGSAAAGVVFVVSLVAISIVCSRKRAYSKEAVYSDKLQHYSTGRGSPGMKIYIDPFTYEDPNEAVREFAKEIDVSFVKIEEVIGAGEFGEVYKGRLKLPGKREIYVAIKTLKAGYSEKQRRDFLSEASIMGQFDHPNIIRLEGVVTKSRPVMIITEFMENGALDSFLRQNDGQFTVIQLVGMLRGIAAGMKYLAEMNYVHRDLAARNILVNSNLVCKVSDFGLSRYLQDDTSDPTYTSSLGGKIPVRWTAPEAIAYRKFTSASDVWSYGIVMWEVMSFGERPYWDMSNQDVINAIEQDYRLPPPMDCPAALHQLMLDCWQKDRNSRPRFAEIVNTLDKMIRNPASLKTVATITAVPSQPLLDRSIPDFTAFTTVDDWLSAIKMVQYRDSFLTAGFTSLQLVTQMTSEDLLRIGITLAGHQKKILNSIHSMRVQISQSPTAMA
Chain of panel of human kinases (kinase named in endpoint) (Homo sapiens, UniProt P21709) (P21709 26-976): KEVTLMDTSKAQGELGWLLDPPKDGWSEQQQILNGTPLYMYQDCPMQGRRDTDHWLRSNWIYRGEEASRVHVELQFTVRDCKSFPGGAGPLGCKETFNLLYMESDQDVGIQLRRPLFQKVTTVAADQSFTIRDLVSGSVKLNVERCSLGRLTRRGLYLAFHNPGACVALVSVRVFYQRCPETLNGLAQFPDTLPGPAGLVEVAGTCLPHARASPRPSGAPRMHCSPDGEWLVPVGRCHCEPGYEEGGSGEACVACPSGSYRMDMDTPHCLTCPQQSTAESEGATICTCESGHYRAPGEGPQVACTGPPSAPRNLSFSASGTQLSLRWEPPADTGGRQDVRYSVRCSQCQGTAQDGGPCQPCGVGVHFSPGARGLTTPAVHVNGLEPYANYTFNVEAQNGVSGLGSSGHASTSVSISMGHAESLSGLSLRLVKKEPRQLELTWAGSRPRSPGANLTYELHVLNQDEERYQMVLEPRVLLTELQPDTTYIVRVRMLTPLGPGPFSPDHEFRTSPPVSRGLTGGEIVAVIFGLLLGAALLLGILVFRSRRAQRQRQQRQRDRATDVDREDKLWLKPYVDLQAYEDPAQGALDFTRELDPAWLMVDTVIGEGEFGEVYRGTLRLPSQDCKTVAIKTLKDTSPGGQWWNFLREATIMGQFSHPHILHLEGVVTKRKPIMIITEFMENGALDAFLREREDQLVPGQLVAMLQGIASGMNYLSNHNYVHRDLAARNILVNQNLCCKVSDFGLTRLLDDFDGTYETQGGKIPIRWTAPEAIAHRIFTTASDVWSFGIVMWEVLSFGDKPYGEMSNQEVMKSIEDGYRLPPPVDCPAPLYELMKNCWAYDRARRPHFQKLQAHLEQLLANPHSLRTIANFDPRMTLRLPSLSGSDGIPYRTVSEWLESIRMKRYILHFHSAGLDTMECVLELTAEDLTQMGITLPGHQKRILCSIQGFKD
Chain of panel of human kinases (kinase named in endpoint) (Homo sapiens, UniProt Q9P289) (Q9P289 whole entry): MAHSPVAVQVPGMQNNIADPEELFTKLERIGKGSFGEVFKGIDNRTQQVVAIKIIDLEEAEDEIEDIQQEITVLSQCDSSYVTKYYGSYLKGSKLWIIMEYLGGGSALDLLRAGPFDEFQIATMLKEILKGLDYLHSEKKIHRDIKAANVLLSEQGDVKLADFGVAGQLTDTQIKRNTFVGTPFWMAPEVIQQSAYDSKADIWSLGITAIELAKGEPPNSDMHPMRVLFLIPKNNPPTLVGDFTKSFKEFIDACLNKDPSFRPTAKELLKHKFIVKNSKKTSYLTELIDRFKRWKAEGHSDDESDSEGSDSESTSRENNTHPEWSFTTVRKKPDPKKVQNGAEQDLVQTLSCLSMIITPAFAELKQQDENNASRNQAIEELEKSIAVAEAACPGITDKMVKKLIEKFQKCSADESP
Chain of panel of human kinases (kinase named in endpoint) (Homo sapiens, UniProt Q14164) (Q14164 whole entry): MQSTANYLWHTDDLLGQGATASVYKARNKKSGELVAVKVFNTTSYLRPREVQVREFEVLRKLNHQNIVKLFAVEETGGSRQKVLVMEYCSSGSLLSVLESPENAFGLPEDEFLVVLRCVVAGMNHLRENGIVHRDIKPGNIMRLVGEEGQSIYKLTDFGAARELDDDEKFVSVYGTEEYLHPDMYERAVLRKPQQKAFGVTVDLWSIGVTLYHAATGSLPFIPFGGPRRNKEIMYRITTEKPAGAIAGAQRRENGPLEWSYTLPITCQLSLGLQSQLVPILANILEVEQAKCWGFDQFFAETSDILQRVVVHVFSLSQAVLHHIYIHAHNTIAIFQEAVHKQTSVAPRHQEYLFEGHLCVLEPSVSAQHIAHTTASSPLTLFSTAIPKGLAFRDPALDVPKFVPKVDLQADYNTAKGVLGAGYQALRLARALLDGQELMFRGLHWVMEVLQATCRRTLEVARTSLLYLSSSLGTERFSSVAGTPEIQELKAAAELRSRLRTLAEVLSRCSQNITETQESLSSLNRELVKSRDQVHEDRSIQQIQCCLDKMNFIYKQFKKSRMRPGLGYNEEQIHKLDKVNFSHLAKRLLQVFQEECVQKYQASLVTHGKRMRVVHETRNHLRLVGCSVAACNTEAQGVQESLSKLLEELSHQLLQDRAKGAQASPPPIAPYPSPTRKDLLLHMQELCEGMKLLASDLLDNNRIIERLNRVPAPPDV
Chain of panel of human kinases (kinase named in endpoint) (Homo sapiens, UniProt O75460) (O75460 19-977): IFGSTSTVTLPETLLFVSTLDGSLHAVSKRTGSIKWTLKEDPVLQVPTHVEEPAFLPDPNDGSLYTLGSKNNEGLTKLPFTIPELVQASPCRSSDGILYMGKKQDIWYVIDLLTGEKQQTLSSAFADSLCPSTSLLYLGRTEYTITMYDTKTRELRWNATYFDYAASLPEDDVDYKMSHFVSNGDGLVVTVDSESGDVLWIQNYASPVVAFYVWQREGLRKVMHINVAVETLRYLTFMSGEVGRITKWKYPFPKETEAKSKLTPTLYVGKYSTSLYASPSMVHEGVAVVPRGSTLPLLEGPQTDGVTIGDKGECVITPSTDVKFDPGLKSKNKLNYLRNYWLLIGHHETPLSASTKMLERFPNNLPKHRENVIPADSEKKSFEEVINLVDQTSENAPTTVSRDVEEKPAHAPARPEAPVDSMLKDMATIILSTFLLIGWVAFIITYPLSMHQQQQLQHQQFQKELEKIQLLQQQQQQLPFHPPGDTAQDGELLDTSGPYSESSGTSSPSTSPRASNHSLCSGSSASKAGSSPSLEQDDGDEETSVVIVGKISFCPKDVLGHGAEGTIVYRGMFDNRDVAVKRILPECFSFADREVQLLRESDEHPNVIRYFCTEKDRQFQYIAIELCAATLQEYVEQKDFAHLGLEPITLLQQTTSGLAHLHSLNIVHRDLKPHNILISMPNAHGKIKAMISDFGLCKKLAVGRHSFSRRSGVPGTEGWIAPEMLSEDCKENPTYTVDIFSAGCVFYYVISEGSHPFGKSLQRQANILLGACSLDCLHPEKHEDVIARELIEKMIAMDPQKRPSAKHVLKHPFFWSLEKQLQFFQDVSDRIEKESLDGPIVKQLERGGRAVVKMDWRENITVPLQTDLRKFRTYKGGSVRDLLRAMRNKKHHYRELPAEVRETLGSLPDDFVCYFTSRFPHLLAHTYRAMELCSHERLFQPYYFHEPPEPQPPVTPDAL
Chain of panel of human kinases (kinase named in endpoint) (Homo sapiens, UniProt Q00532) (Q00532 whole entry): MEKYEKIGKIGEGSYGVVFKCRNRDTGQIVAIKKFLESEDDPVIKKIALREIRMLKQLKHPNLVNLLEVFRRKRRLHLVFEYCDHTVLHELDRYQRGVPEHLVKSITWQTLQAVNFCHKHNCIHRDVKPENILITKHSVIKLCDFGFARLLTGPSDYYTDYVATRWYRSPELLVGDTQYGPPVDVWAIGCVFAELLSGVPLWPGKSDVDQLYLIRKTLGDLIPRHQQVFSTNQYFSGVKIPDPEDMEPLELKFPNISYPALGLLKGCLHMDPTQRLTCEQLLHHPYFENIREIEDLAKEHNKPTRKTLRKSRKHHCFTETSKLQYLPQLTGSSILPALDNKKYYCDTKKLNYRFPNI

CC(C)C(=O)Nc1nc2cc(-c3ccc4c(c3)c(C(=O)NC(C)c3ccccc3)cn4C)ccn2n1 (stereo not shown) [RI-962]
activity at 10 µM [1]: 79%
activity at 10 µM [2]: 97%
activity at 10 µM [3]: 90%
activity at 10 µM [4]: 80%
activity at 10 µM [5]: 116%
activity at 10 µM [6]: 88%
activity at 10 µM [7]: 108%
activity at 10 µM [8]: 99%
activity at 10 µM [9]: 132%
activity at 10 µM [10]: 104%
activity at 10 µM [11]: 98%
activity at 10 µM [12]: 119%
activity at 10 µM [13]: 115%
activity at 10 µM [14]: 114%
activity at 10 µM [15]: 112%
activity at 10 µM [16]: 97%
activity at 10 µM [17]: 91%
activity at 10 µM [18]: 92%
activity at 10 µM [19]: 111%
activity at 10 µM [20]: 103%
activity at 10 µM [21]: 68%
activity at 10 µM [22]: 119%
activity at 10 µM [23]: 72%
activity at 10 µM [24]: 96%
activity at 10 µM [25]: 65%

Source: paper PMC9653409, “Generative deep learning enables the discovery of a potent and selective RIPK1 inhibitor” (Nature Communications, 2022)
